According to patent publication US10845368B2, “Nanoparticles for mitochondrial trafficking of agents” (UNIVERSITY OF GEORGIA RESEARCH FOUNDATION, INC., priority 2012, dated 2020):

Assays:
[1] = tested on: 3T3-L1 cells; details: 3T3-L1, 100 μM
Experimental: To examine whether encapsulation of 2,4-DNP in targeted nanoparticles can suppress the induced differentiation of 3T3-L1 preadipocytes at a low dosage that is insufficient to exert cytotoxicity, we continuously exposed 3T3-L1 cells to 1 μM, 4 μM, 25 μM, and 100 μM targeted 2,4-DNP nanoparticles (FIGS. 12A-D and 13) during the differentiation period for 7 d, and evaluated cell viability and intracellular lipid accumulation. Nontargeted 2,4-DNP nanoparticles and free 2,4-DNP were used as controls.

[2] = tested on: HeLa cells; experiment: MTT cytotoxicity assay; format: cell-based, human
Text: FIGS. 11A-C are bar graphs showing cytotoxicity profiles of targeted LND nanoparticles, nontargeted LND nanoparticles, free LND (A); targeted α-TOS nanoparticles, nontargeted α-TOS nanoparticles, free α-TOS in HeLa cells (B); and empty targeted nanoparticles, and empty nontargeted nanoparticles in HeLa cells (C).
The selectivity and efficiency of LND and α-TOS against cancer cells depend on their ability to target the mitochondria of cells. To evaluate the efficacy of our targeted nanoparticles in delivering LND and α-TOS, we performed MTT assays in HeLa cells. […] Preferential localization in the target organelle accounts for the enhanced cytotoxicity of both LND and α-TOS encapsulated in the targeted nanoparticles.

Compound | cellular toxicity [1] | IC50 [2] [nM]
O=[N+]([O-])c1ccc(O)c([N+](=O)[O-])c1 [Free 2,4-DNP, 2,4-dinitrophenol] | demonstrated cellular toxicity | –
Cc1c(C)c2c(c(C)c1OC(=O)CCC(=O)O)CC[C@@](C)(CCC[C@H](C)CCC[C@H](C)CCCC(C)C)O2 [free α-TOS, α-tocopheryl succinate] | – | 381 ± 5
